Assays:
ABCG2 [1] = target: T1, ABCG2 (Homo sapiens, UniProt Q9UNQ0); test: Vanadate-sensitive ATPase stimulation in ABCG2 membrane vesicles (Pi release); also inhibition of PhA efflux in ABCG2-transfected HEK293 cells; assay type: biochemical; parameters: membrane vesicles derived from ABCG2 baculovirus-infected High Five insect cells
T1 sequence (Q9UNQ0 1-655): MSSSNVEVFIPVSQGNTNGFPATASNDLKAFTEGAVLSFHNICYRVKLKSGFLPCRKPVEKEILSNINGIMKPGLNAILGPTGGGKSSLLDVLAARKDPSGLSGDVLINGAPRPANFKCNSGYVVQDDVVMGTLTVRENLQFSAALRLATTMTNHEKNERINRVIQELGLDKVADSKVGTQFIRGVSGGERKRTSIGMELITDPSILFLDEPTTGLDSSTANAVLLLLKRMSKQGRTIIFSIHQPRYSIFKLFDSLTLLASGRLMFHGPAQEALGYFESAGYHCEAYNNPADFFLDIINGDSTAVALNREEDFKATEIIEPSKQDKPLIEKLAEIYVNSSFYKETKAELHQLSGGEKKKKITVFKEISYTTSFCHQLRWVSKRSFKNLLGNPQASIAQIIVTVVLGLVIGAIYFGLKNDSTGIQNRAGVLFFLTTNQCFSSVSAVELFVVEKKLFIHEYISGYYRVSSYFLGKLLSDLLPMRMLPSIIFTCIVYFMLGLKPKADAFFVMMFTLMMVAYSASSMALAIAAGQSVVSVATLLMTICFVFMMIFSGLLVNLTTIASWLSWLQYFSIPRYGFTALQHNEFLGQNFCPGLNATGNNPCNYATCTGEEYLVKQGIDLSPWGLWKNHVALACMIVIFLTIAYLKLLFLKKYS

ABCG2 [2] = target: T1, ABCG2; test: Fluorescent substrate accumulation/efflux by flow cytometry in ABCG2-expressing versus parental cells; assay type: cell-based; parameters: human ABCG2-transfected R482-HEK293 cells; S1-MI-80 and H460-MX20 cells

CC(C)=CCOc1c2occc2cc2ccc(=O)oc12 [IMP, Imperatorin]
EC50 (ABCG2 [1]): ~170 nM

C=Cc1c(C)c2cc3nc(c4c5[nH]c(cc6nc(cc1[nH]2)C(C)=C6CC)c(C)c5C(=O)[C@@H]4C(=O)OC)[C@@H](CCC(=O)O)[C@@H]3C [PhA, pheophorbide A]
Fluorescent substrate accumulation/efflux by flow cytometry in ABCG2-expressing (ABCG2 [2]): ABCG2-mediated efflux of an ABCG2-specific fluorescent substrate PhA
